Test results: PubChem BioAssay AID2060902 (Molecular Pharmacology Branch, DTP, NCI, 2025)
Where “and” joins values, the source holds several entries; their conditions need not be identical. Equal entries are not always repeated.

Tested on: 485368-065-R3-J5-PDC spheroids with HUVEC/MSC, viability
Assay: Anticancer human tumor 485368-065-R3-J5-PDC patient-derived pancreatic carcinoma cell line growth inhibition [RAS]
Settings: for viability, T/C: stronger effect = lower value; active = viability on the fitted dose curve at most 10% of control; inactive = the rest
Text: RAS pathway inhibitors in Combinations in Complex Spheroids
A high-throughput screen of multi-cell type tumor spheroids was designed to identify active combinations of RAS pathway inhibitors and targeted small molecules. Complex spheroids include a stromal component modeled by human endothelial cells (HUVEC) and fibroblasts modeled by human mesenchymal stem cells (MSCs). The concentration ranges selected for each drug and investigational agent were based upon clinically achievable concentrations if the clinical Cmax of the agent was known.
Compounds. The drugs and investigational agents: abemaciclib (NSC768073), cobimetinib (NSC768068), divarasib (GDC6063, NSC841802), docetaxel (NSC628503), GDC-1971 (RLY-1971, NSC841576), gemcitabine (NSC613327), inavolisib (NSC800729), ipatasertib (NSC767898), KB-0742 (NSC834161), MRTX-1133 (NSC836407), osimertinib (NSC779217), RMC-4630 (NSC839698), RMC-6236 (NSC851965), RMC-6291 (NSC852671), Ro-3306 (NSC812927), sapanisertib (NSC764658), SN-38 (NSC673596), staurosporine (NSC755774), SY5609 (NSC837396), and tovorafenib (DAY101, NSC766906), were obtained from the National Cancer Institute (NCI) Developmental Therapeutics Program Chemical Repository. The FDA-approved anticancer drug set is available from the NCI Developmental Therapeutics Program. […] The stock solutions were prepared in dimethyl sulfoxide (DMSO, Sigma-Aldrich, St. Louis, MO, cat. D2650) at 800-fold the tested concentration and stored at -70 degrees C prior to their use. All drugs and investigational agents were tested over a range starting from a high concentration at or near the clinical Cmax and decreasing in half-log increments. If the clinical Cmax for an agent had not been determined, the highest concentration tested was 10 microM.
Cell Culture. All cells were maintained in an incubator at 37 degrees C and 5% CO2 with 95% humidity. The PDC lines were cultured according to standard operating procedures established by the NCI PDMR. All PDCs were thawed and cultured in Matrigel-coated flasks prepared with a working solution of 1X Ham's F-12 nutrient mix, without supplementation (Invitrogen, Waltham, MA, cat. 11765054), 100 U/mL penicillin-streptomycin (Invitrogen, cat. 15140122), and 2.5% Matrigel (Corning Inc., Corning, NY, cat. 354248) for the first three passages. The 362531-283-R-J2-PDC and 782815-120-R-J1-PDC lines were cultured in 6C/Colon 1B media, which includes advanced DMEM/F-12 (Thermo Fisher Scientific, cat. 12634028), 10 mM HEPES (Thermo Fisher Scientific, cat. 15630080), 1X GlutaMAX supplement (Thermo Fisher Scientific, cat. 35050061), 0.1 mg/mL primocin (InvivoGen, San Diego, CA, cat. ant-pm-2), 10% defined fetal bovine serum, heat inactivated (HyClone Laboratories Inc., Logan, UT, cat. SH30070.03HI), 50% L-WRN conditioned media (ATCC, cat. CRL-3276), 1.25 mM N-Acetyl-L-cysteine (Sigma-Aldrich, cat. A9165), 10 mM nicotinamide (Sigma-Aldrich, cat. N0636), 1X B-27 supplement (Thermo Fisher Scientific, cat. 17504044), 1X N-2 supplement (Thermo Fisher Scientific, cat. 17502048), 50 ng/mL human EGF (Thermo Fisher Scientific, cat. PHG0311), and 10 microM Y-27632 dihydrochloride (Tocris Bioscience, cat. 1254). The K12877-001-R-J1-PDC line was cultured in 6I media, which includes all 6C/Colon 1B media plus 10 ng/mL human FGF-10 (PeproTech, cat. 100-26), 1 ng/mL human FGF-2 (PeproTech, cat. 100-18B), 1 µM prostaglandin E2 (Tocris Bioscience, cat. 2296), […] hydrocortisone (Sigma-Aldrich, cat. H4001), and […] bovine insulin (Sigma-Aldrich, cat. I6634). The K86415-001-R-J1-PDC line was cultured in 6D media, which includes all 6C/Colon 1B media components minus the L-WRN conditioned media. The 485176-168-R4-J1-PDC was cultured in PANC media, which includes all 6C/Colon 1B media plus 100 ng/mL human FGF-10 (PeproTech, cat. 100-26), 500 nM SB-431542 (Selleckchem, cat. S1067), and 10 nM gastrin (Tocris Bioscience, cat. 3006). […]

[1] = compound alone, run of 07/15/2024
[2] = compound alone, run of 07/09/2024
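Also: spheroids exposed to agents for seven days before readout.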

C#Cc1c(F)ccc2cc(O)cc(-c3ncc4c(N5CC6CCC(C5)N6)nc(OCC56CCCN5CC(F)C6)nc4c3F)c12 (centres undefined)
inactive: viability, T/C (compound 0.0316 µM) 105% [middle of 8 runs] | viability, T/C (compound 0.1 µM) 108% [middle of 8 runs] | viability, T/C (compound 0.316 µM) 100% [middle of 8 runs] | viability, T/C (compound 1 µM) 99.4% [middle of 8 runs] | viability, T/C (compound 3.16 µM) 76.5% [middle of 8 runs] | viability, T/C (compound 10 µM) 42.4% [middle of 8 runs]
7.73 µM [middle of 8 runs]: IC50 [1]

C=CC(=O)N1CCN(c2nc(OCC3CCCN3C)nc3c(F)c(-c4nc(N)cc(C)c4C(F)(F)F)c(Cl)cc23)C(C)C1 (centres undefined)
> 1000 nM: IC50 [1] | IC50 (curve of compound)
inactive: viability, T/C (compound 0.00316 µM) 106% [middle of 12 runs] | viability, T/C (compound 0.01 µM, compound 0.0316 µM) 101% | viability, T/C (compound 0.01 µM, compound 0.1 µM) 98.5% | viability, T/C (compound 0.01 µM, compound 0.316 µM) 111% | viability, T/C (compound 0.01 µM, compound 1 µM) 97% | viability, T/C (compound 0.01 µM) 104% [middle of 12 runs] | viability, T/C (compound 0.0316 µM, compound 0.00316 µM) 102% | viability, T/C (compound 0.0316 µM, compound 0.01 µM) 110% | viability, T/C (compound 0.0316 µM, compound 0.1 µM) 107% | viability, T/C (compound 0.0316 µM, compound 0.316 µM) 107% | viability, T/C (compound 0.0316 µM, compound 1 µM) 113% | viability, T/C (compound 0.0316 µM) 106% [middle of 13 runs] | viability, T/C (compound 0.1 µM, compound 0.00316 µM) 116% | viability, T/C (compound 0.1 µM, compound 0.01 µM) 112% | viability, T/C (compound 0.1 µM, compound 0.0316 µM) 99.1% | viability, T/C (compound 0.1 µM, compound 0.316 µM) 107% | viability, T/C (compound 0.1 µM, compound 1 µM) 94% | viability, T/C (compound 0.1 µM) 101% [middle of 13 runs] | viability, T/C (compound 0.316 µM, compound 0.00316 µM) 103% | viability, T/C (compound 0.316 µM, compound 0.01 µM) 104% | viability, T/C (compound 0.316 µM, compound 0.0316 µM) 102% | viability, T/C (compound 0.316 µM, compound 0.1 µM) 108% | viability, T/C (compound 0.316 µM, compound 1 µM) 100% | viability, T/C (compound 0.316 µM) 106% [middle of 13 runs] | viability, T/C (compound 1 µM, compound 0.00316 µM) 112% | viability, T/C (compound 1 µM, compound 0.01 µM) 106% | viability, T/C (compound 1 µM, compound 0.0316 µM) 108% | viability, T/C (compound 1 µM, compound 0.1 µM) 101% | viability, T/C (compound 1 µM, compound 0.316 µM) 96.7% | viability, T/C (compound 1 µM) 101% [middle of 13 runs]

C=CC(=O)Nc1cc(Nc2nccc(-c3cn(C)c4ccccc34)n2)c(OC)cc1N(C)CCN(C)C
inactive: viability, T/C (compound 0.00316 µM) 108% [middle of 4 runs] | viability, T/C (compound 0.01 µM) 94.1% [middle of 4 runs] | viability, T/C (compound 0.0316 µM) 109% [middle of 4 runs] | viability, T/C (compound 0.1 µM) 106% [middle of 4 runs] | viability, T/C (compound 0.316 µM) 104% [middle of 4 runs] | viability, T/C (compound 1 µM) 97.5% [middle of 4 runs]
> 1000 nM: IC50 (curve of compound)

CC(C)n1nc(-c2ccc3oc(N)nc3c2)c2c(N)ncnc21
22.7 nM [middle of 4 runs]: IC50 (curve of compound)
inactive: viability, T/C (compound 0.000316 µM) 106% [middle of 4 runs] | viability, T/C (compound 0.001 µM) 91.4% [middle of 4 runs] | viability, T/C (compound 0.00316 µM) 89% [middle of 4 runs] | viability, T/C (compound 0.01 µM) 65.8% [middle of 4 runs] | viability, T/C (compound 0.0316 µM) 42.8% [middle of 4 runs] | viability, T/C (compound 0.1 µM) 23.6% [middle of 4 runs]

CC(Nc1ccc2c(c1)OCCn1cc(N3C(=O)OCC3C(F)F)nc1-2)C(N)=O (centres undefined)
inactive: viability, T/C (compound 0.0316 µM) 96.7% [middle of 4 runs] | viability, T/C (compound 0.1 µM) 90% [middle of 4 runs] | viability, T/C (compound 0.316 µM) 99.2% [middle of 4 runs] | viability, T/C (compound 1 µM) 82.1% [middle of 4 runs] | viability, T/C (compound 3.16 µM) 82% [middle of 4 runs] | viability, T/C (compound 10 µM) 58.4% [middle of 4 runs]
> 10000 nM: IC50 (curve of compound)

CC1(C)CCC(Nc2ncc(C(F)(F)F)c(-c3c[nH]c4c(P(C)(C)=O)c(C#N)ccc34)n2)CN1 (centres undefined)
inactive: viability, T/C (compound 0.03 µM) 41.7% [middle of 4 runs] | viability, T/C (compound 0.0949 µM) 38.6% [middle of 4 runs] | viability, T/C (compound 0.3 µM) 39.7% [middle of 4 runs]

CCN1CCN(Cc2ccc(Nc3ncc(F)c(-c4cc(F)c5nc(C)n(C(C)C)c5c4)n3)nc2)CC1
inactive: viability, T/C (compound 0.00316 µM) 99.7% [middle of 4 runs] | viability, T/C (compound 0.01 µM) 91.6% [middle of 4 runs] | viability, T/C (compound 0.0316 µM) 90.2% [middle of 4 runs] | viability, T/C (compound 0.1 µM) 75.6% [middle of 4 runs] | viability, T/C (compound 0.316 µM) 59.6% [middle of 4 runs] | viability, T/C (compound 1 µM) 45.4% [middle of 4 runs]

CCc1c2c(nc3ccc(O)cc13)-c1cc3c(c(=O)n1C2)COC(=O)[C@]3(O)CC
active: viability, T/C (compound 0.03 µM) 7.01% [middle of 4 runs] | viability, T/C (compound 0.0949 µM) 4.37% [middle of 4 runs] | viability, T/C (compound 0.3 µM) 3.18% [middle of 4 runs]
inactive: viability, T/C (compound 0.000949 µM) 86.9% [middle of 4 runs] | viability, T/C (compound 0.003 µM) 34.5% [middle of 4 runs] | viability, T/C (compound 0.00949 µM) 14.6% [middle of 4 runs]
2.19 nM [middle of 4 runs]: IC50 (curve of compound)

CCn1c(-c2cc(N3CCN(C)CC3)cnc2C(C)OC)c2c3cc(ccc31)-c1csc(n1)CC(NC(=O)C1CC1C)C(=O)N1CCCC(N1)C(=O)OCC(C)(C)C2 (centres undefined)
active: viability, T/C (compound 0.3 µM) 8.88% [middle of 8 runs]
10.3% [middle of 7 runs]: viability, T/C (compound 0.0949 µM)
inactive: viability, T/C (compound 0.000949 µM) 35.5% [middle of 8 runs] | viability, T/C (compound 0.003 µM) 22.9% [middle of 8 runs] | viability, T/C (compound 0.00949 µM) 17.3% [middle of 8 runs] | viability, T/C (compound 0.03 µM) 12.7% [middle of 8 runs]
< 0.949 nM: IC50 [2]

CCn1c(-c2cccnc2C(C)OC)c2c3cc(ccc31)N1CCOC(CC(NC(=O)C(C(C)C)N(C)C(=O)C3(F)CCN(C(=O)C#CC(C)(C)N(C)C)CC3)C(=O)N3CCCC(N3)C(=O)OCC(C)(C)C2)C1 (centres undefined)
inactive: viability, T/C (compound 0.000949 µM) 102% [middle of 8 runs] | viability, T/C (compound 0.003 µM) 103% [middle of 8 runs] | viability, T/C (compound 0.00949 µM) 102% [middle of 8 runs] | viability, T/C (compound 0.03 µM) 97.4% [middle of 8 runs] | viability, T/C (compound 0.0949 µM) 98% [middle of 8 runs] | viability, T/C (compound 0.3 µM) 96.9% [middle of 8 runs]
> 300 nM: IC50 [2]

Nc1ccn(C2OC(CO)C(O)C2(F)F)c(=O)n1 (centres undefined)
inactive: viability, T/C (compound 0.00316 µM) 100% [middle of 4 runs] | viability, T/C (compound 0.01 µM) 29.2% [middle of 4 runs] | viability, T/C (compound 0.0316 µM) 10.9% [middle of 4 runs] | viability, T/C (compound 0.1 µM) 10.5% [middle of 4 runs] | viability, T/C (compound 0.316 µM) 12.1% [middle of 4 runs] | viability, T/C (compound 1 µM) 11.3% [middle of 4 runs]
7.13 nM and 6.64 nM and 6.75 nM: IC50 (curve of compound)

O=C(c1ccc(F)c(F)c1Nc1ccc(I)cc1F)N1CC(O)([C@@H]2CCCCN2)C1
42.7 nM [middle of 4 runs]: IC50 (curve of compound)
inactive: viability, T/C (compound 0.00316 µM) 98.9% [middle of 4 runs] | viability, T/C (compound 0.01 µM) 69.2% [middle of 4 runs] | viability, T/C (compound 0.0316 µM) 54.5% [middle of 4 runs] | viability, T/C (compound 0.1 µM) 36.6% [middle of 4 runs] | viability, T/C (compound 0.316 µM) 26.7% [middle of 4 runs]
11.3% [middle of 4 runs]: viability, T/C (compound 1 µM)
